Tests used:
Type in all cases: biochemical
[1] = target: T1, full-length human PHD1 (Homo sapiens, UniProt Q96KS0); assay: TR-FRET assay, PHD1 enzymatic IC50; settings: 15 nM PHD1, 1 μM 2-OG
T1 construct: expressed in a baculovirus expression system as the full-length protein; FLAG (N); purchased Active Motif 81064; host or cells: baculovirus expression system
From the text: (§1) In the presence of 2-oxoglutarate and O2, PHD enzyme hydroxylates proline 564 of biotin-tagged HIF-1α peptide resulting in generation of biotin-tagged HIF-1α-hydroxyproline, succinate and CO2. The resulting proximity of the donor fluorophore complex, monoclonal antibody anti-6His-Terbium (Tb)-cryptate Gold, bound to the His-tagged VHL protein, EloB, EloC complex (His-VBC) and the acceptor fluorophore, SA-D2 complex, bound to HIF-1α-hydroxyproline results in a fluorescence resonance energy transfer signal that can be detected and quantified
(§2) Time-resolved fluorescence resonance energy transfer (TR-FRET) assay was utilized to determine the enzymatic half maximal inhibitory concentration (IC50) value of PHD inhibitors against the full-length human prolyl-4-hydroxylase domain (PHD) enzymes, PHD1, PHD2, and PHD3. The TR-FRET assay was developed based on the specific binding of hydroxylated HIF-1α peptide with the complex formed by VHL, EloB and EloC (VBC), to generate a fluorescent signal. Terbium (Tb)-Donor (monoclonal antibody anti-6His-Tb-cryptate Gold) and D2-acceptor (streptavidin [SA]-D2) of TR-FRET are linked to the VBC complex and to HIF-1α peptide, respectively. The VBC complex binds specifically to the HIF-1α peptide when it is hydroxylated, allowing energy transfer from TR-FRET donor to acceptor (FIG. 1).
Recombinant human PHD1 protein (catalog #81064, Lot #24717001) was purchased from Active Motif (Carlsbad, Calif., USA). PHD1 was expressed in a baculovirus expression system as the full-length protein (NCBI accession number NP_542770.2) with an N-terminal FLAG tag (molecular weight 44.9 kDa). Purity (>90%) was assessed by SDS-PAGE.
(§3) PHD inhibitor compound was preincubated with PHD enzyme in a 10 μL reaction volume in white 384-well Optiplate microplates (catalog #6007290, Perkin Elmer, Waltham, Mass., USA). For this, 5 μL PHD inhibitor compound was serially diluted with dilution buffer (50 mM HEPES [4-(2-hydroxyethyl)-1-piperazineethanesulfonic acid] pH 7.5, 50 mM sodium chloride [NaCl], 0.01% Tween-20, 0.01% purified bovine serum albumin [BSA]) and mixed with 5 μL PHD enzyme mix prepared as a 4× concentrate in the dilution buffer containing PHD enzyme (60 nM PHD1, 20 nM PHD2, 140 nM PHD3), 40 μM ferrous ammonium sulfate (FAS), 4 mM sodium (Na) ascorbate. The plates were incubated for 30 minutes at room temperature without rotation.
(§4) Five microliters of the VBC/anti-6His-Tb-cryptate Gold mix prepared as a 4×concentrate in dilution buffer containing 20 nM His-VBC, 1.32 nM monoclonal antibody anti-6His-Tb-cryptate Gold was then added. This step was followed immediately by the addition of 5 μL of the HIF-1α C35 substrate mix prepared as a 4×concentrate in the dilution buffer containing 120 nM biotin-labeled HIF-1α C35, 132 nM SA-D2, 4 μM 2-oxoglutarate (2-OG) to reach a final reaction volume of 20 μL.
(§5) The final assay reaction contained 50 mM HEPES, pH 7.5, 50 mM NaCl, 1 μM 2-OG, 10 μM FAS, 1 mM Na ascorbate, 0.01% Tween-20, 0.01% purified BSA, 30 nM biotin-labeled HIF-1α C35, 5 nM His-VBC, 0.33 nM monoclonal antibody anti-6His-Tb-cryptate Gold, 33 nM SA-D2 and PHD enzyme (15 nM PHD1, 5 nM PHD2, or 35 nM PHD3) with the diluted compound.
(§6) For the measurement of the IC50 of PHD inhibitor compound, reactions were incubated for 10 minutes at room temperature and then read on a Perkin Elmer EnVision (Waltham, Mass., USA) at an excitation wavelength of 340 nm and at emission wavelengths of 615 nm and 665 nm. The data represent the quotient of the signal intensity at 665 nm and 615 nm, automatically calculated by Envision Manager software (Perkin Elmer, Waltham, Mass., USA). The IC50 values (mean, standard deviation, standard error of the mean, geometric mean and 95% confidence interval) were determined using a four-parameter curve-fit using GraphPad Prism 7.0 (GraphPad, La Jolla, Calif., USA) and represent the compound concentration plotted against the calculated ratio of 665 nm and 615 nm. […]

[2] = target: T2, full-length human PHD2 (Homo sapiens, UniProt Q9GZT9); assay: TR-FRET assay, PHD2 enzymatic IC50; settings: 5 nM PHD2, 1 μM 2-OG
T2 construct: The PHD2 construct contained amino acids 1 to 426 of PHD2; His tag (N, cleaved yes); TEV protease cleavage site (N, cleaved yes); host or cells: Sf9 insect cells (baculovirus)
T2 sequence (Q9GZT9 whole entry, the tested form may be a part): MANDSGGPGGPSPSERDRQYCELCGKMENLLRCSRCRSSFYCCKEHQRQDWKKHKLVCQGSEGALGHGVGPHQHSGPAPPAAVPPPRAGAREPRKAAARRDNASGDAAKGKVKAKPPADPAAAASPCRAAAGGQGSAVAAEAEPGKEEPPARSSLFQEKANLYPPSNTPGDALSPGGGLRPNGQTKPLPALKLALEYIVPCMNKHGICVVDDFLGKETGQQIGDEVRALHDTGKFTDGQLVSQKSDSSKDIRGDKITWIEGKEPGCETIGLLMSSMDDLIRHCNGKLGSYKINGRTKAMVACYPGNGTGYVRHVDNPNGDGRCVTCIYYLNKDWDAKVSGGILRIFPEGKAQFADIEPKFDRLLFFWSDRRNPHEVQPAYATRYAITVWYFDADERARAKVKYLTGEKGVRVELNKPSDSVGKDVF
From the text: as §1, §2
The full-length human PHD2 enzyme was produced with a baculovirus infected insect cell (BIIC) expression system by Beryllium (Bedford, Mass., USA). The PHD2 construct contained amino acids 1 to 426 of PHD2 (UniProt Knowledgebase[UniProtKB]/Swiss-Prot accession number Q9GZT9.1), and a His tag and a Tobacco Etch Virus (TEV) protease cleavage site at the N-terminus. The construct was expressed in Sf9 insect cells, purified by Ni-NTA column and digested with TEV protease to remove the His tag.
as §3, §4, §5
For the measurement of the IC50 of PHD inhibitor compound, reactions were incubated for 10 minutes at room temperature and then read on a Perkin Elmer EnVision (Waltham, Mass., USA) at an excitation wavelength of 340 nm and at emission wavelengths of 615 nm and 665 nm. The data represent the quotient of the signal intensity at 665 nm and 615 nm, automatically calculated by Envision Manager software (Perkin Elmer, Waltham, Mass., USA). […]

[3] = target: T3, full-length human PHD3 (Homo sapiens, UniProt Q9H6Z9); assay: TR-FRET assay, PHD3 enzymatic IC50; settings: 35 nM PHD3, 1 μM 2-OG
T3 construct: It was expressed in E. coli as the full-length protein; 6-His (N); purchased Active Motif 81033; host or cells: E. coli
T3 sequence (Q9H6Z9 whole entry): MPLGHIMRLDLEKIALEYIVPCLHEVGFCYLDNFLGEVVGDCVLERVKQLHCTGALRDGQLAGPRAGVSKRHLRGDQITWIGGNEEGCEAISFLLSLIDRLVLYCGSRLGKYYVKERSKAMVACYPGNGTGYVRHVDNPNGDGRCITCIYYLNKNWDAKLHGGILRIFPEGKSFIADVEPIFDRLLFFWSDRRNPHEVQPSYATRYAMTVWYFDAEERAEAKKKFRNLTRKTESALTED
From the text: as §1, §2
Recombinant human PHD3 protein (molecular weight 31.1 kDa) was purchased from Active Motif (Carlsbad, Calif., USA). It was expressed in E. coli as the full-length protein (NCBI accession number NP_071356.1) with an N-terminal 6-His tag (catalog #81033, Lot #24417001).
as §3, §4, §5, §6

T1 sequence (Q96KS0 whole entry): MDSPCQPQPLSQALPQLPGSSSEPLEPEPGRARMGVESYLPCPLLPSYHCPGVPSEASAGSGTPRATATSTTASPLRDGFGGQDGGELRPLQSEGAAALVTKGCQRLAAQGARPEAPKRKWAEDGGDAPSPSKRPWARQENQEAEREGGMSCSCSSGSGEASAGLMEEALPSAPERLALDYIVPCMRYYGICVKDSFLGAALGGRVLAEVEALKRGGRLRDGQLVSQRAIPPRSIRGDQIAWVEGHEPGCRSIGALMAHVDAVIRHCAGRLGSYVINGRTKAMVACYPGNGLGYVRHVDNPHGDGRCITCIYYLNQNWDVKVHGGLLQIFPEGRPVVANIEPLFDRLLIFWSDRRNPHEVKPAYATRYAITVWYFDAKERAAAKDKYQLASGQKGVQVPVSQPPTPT

In the case of `CC(=O)c1ccc(-n2ncc(-c3ccc(C#N)cc3)c2O)nc1` [Compound 1, 4-(1-(5-acetylpyridin-2-yl)-5-hydroxy-1H-pyrazol-4-yl)benzonitrile], the IC50 [1] is reported as under 100 nM, the IC50 [2] is reported as under 100 nM and the IC50 [3] is reported as under 100 nM.
In the case of `CCC(=O)c1ccc(-n2ncc(-c3ccc(C#N)cc3)c2O)nc1` [Compound 2, 4-(5-hydroxy-1-(5-propionylpyridin-2-yl)-1H-pyrazol-4-yl)benzonitrile], the IC50 [1] is reported as under 100 nM, the IC50 [2] is reported as under 100 nM and the IC50 [3] is reported as under 100 nM.
For `CC(C)C(=O)c1ccc(-n2ncc(-c3ccc(C#N)cc3)c2O)nc1` [Compound 3, 4-(5-hydroxy-1-(5-isobutyrylpyridin-2-yl)-1H-pyrazol-4-yl)benzonitrile], the IC50 [1] was under 100 nM, the IC50 [2] was under 100 nM and the IC50 [3] was under 100 nM.
`CS(=O)(=O)c1ccc(-n2ncc(-c3ccc(C#N)cc3)c2O)nc1` [Compound 4, 4-(5-hydroxy-1-(5-(methylsulfonyl)pyridin-2-yl)-1H-pyrazol-4-yl)benzonitrile] gave an IC50 [1] of under 100 nM, an IC50 [2] of under 100 nM and an IC50 [3] of under 100 nM.
`CS(=O)(=O)c1ccc(-n2ncc(-c3cccc(C#N)c3)c2O)nc1` [Compound 5, 3-(5-hydroxy-1-(5-(methylsulfonyl)pyridin-2-yl)-1H-pyrazol-4-yl)benzonitrile] gave an IC50 [1] of 100 to 1000 nM and an IC50 [2] of under 100 nM.
`Cc1cc(C#N)ccc1-c1cnn(-c2ccc(S(C)(=O)=O)cn2)c1O` [Compound 6, 4-(5-hydroxy-1-(5-(methylsulfonyl)pyridin-2-yl)-1H-pyrazol-4-yl)-3-methylbenzonitrile] gave an IC50 [1] of under 100 nM, an IC50 [2] of under 100 nM and an IC50 [3] of under 100 nM.
`CS(=O)(=O)c1ccc(-n2ncc(-c3ccc(CC#N)cc3)c2O)nc1` [Compound 7, 2-(4-(5-hydroxy-1-(5-(methylsulfonyl)pyridin-2-yl)-1H-pyrazol-4-yl)phenyl)acetonitrile] showed an IC50 [1] of under 100 nM, an IC50 [2] of under 100 nM and an IC50 [3] of under 100 nM.
Work on `COc1cc(-c2cnn(-c3ccc(S(C)(=O)=O)cn3)c2O)ccn1` [Compound 8, 4-(2-methoxypyridin-4-yl)-1-(5-(methylsulfonyl)pyridin-2-yl)-1H-pyrazol-5-ol] yielded an IC50 [1] of under 100 nM, an IC50 [2] of under 100 nM and an IC50 [3] of 100 to 1000 nM.
`CS(=O)(=O)c1ccc(-n2ncc(-c3ccc(Br)cc3)c2O)nc1` [Compound 9, 4-(4-bromophenyl)-1-(5-(methylsulfonyl)pyridin-2-yl)-1H-pyrazol-5-ol] was tested, and the IC50 [1] was under 100 nM, the IC50 [2] was under 100 nM and the IC50 [3] was 100 to 1000 nM.
Compound `N#Cc1ccc(-c2cnn(-c3ccc(-c4ccccn4)cn3)c2O)cc1` [Compound 13, 4-(1-([2,3′-bipyridin]-6′-yl)-5-hydroxy-1H-pyrazol-4-yl)benzonitrile] has an IC50 [1] of under 100 nM and an IC50 [2] of 100 to 1000 nM.
`N#Cc1ccc(-c2cnn(-c3ccc(C(F)(F)F)cn3)c2O)cc1` [Compound 14, 4-(5-hydroxy-1-(5-(trifluoromethyl)pyridin-2-yl)-1H-pyrazol-4-yl)benzonitrile] gave an IC50 [1] of 100 to 1000 nM and an IC50 [2] of 1000 to 10000 nM.
In the case of `N#Cc1ccc(-c2cnn(-c3ccc(C4CC4)cn3)c2O)cc1` [Compound 16, 4-(1-(5-cyclopropylpyridin-2-yl)-5-hydroxy-1H-pyrazol-4-yl)benzonitrile], the IC50 [1] is reported as 100 to 1000 nM and the IC50 [2] is reported as at least 10000 nM.
Compound `N#Cc1ccc(-c2cnn(-c3ccc(Cl)cn3)c2O)cc1` [Compound 18, 4-(1-(5-chloropyridin-2-yl)-5-hydroxy-1H-pyrazol-4-yl)benzonitrile] has an IC50 [1] of 100 to 1000 nM and an IC50 [2] of 100 to 1000 nM.
In the case of `N#Cc1ccc(-c2cnn(-c3ccc(Br)cn3)c2O)cc1` [Compound 21, 4-(1-(5-bromopyridin-2-yl)-5-hydroxy-1H-pyrazol-4-yl)benzonitrile], the IC50 [1] is reported as 100 to 1000 nM and the IC50 [2] is reported as 100 to 1000 nM.
With `CS(=N)(=O)c1ccc(-n2ncc(-c3ccc(C#N)cc3)c2O)nc1` (stereo not shown) [Compound 26, 4-(5-hydroxy-1-(5-(S-methylsulfonimidoyl)pyridin-2-yl)-1H-pyrazol-4-yl)benzonitrile] the IC50 [1] was under 100 nM and the IC50 [2] was under 100 nM.
`CS(=O)(=O)NC(=O)c1ccc(-n2ncc(-c3ccc(C#N)cc3)c2O)nc1` [Compound 27, 6-(4-(4-cyanophenyl)-5-hydroxy-1H-pyrazol-1-yl)-N-(methylsulfonyl) nicotinamide] gave an IC50 [1] of under 100 nM and an IC50 [2] of under 100 nM.
`N#Cc1ccc(-c2cnn(-c3ccc(NC(=O)N4CCOCC4)cn3)c2O)cc1` [Compound 28, N-(6-(4-(4-cyanophenyl)-5-hydroxy-1H-pyrazol-1-yl)pyridin-3-yl)morpholine-4-carboxamide] gave an IC50 [1] of at least 10000 nM and an IC50 [2] of at least 10000 nM.
`CC(=O)NS(=O)(=O)c1ccc(-n2ncc(-c3ccc(C#N)cc3)c2O)nc1` [Compound 29, N-((6-(4-(4-cyanophenyl)-5-hydroxy-1H-pyrazol-1-yl)pyridin-3-yl)sulfonyl)acetamide] gave an IC50 [1] of under 100 nM and an IC50 [2] of under 100 nM.
Work on `CP(C)(=O)c1ccc(-n2ncc(-c3ccc(C#N)cc3)c2O)nc1` [Compound 30, 4-(1-(5-(dimethylphosphoryl)pyridin-2-yl)-5-hydroxy-1H-pyrazol-4-yl)benzonitrile] yielded an IC50 [1] of under 100 nM and an IC50 [2] of under 100 nM.
`CS(=O)(=O)c1ccc(-n2ncc(-c3ccc(Cl)cn3)c2O)nc1` [Compound 31, 4-(5-chloropyridin-2-yl)-1-(5-(methylsulfonyl)pyridin-2-yl)-1H-pyrazol-5-ol] gave an IC50 [1] of 100 to 1000 nM and an IC50 [2] of 100 to 1000 nM.
Compound `Cc1cc(C#N)ccc1-c1cnn(-c2ncc(S(C)(=O)=O)cc2Cl)c1O` [Compound 32, 4-(1-(3-chloro-5-(methylsulfonyl)pyridin-2-yl)-5-hydroxy-1H-pyrazol-4-yl)-3-methylbenzonitrile] has an IC50 [1] of at least 10000 nM and an IC50 [2] of at least 10000 nM.
Work on `N#Cc1ccc(-c2cnn(-c3ccc(NC(=O)N4CCNCC4)cn3)c2O)cc1` [Compound 33, N-(6-(4-(4-cyanophenyl)-5-hydroxy-1H-pyrazol-1-yl)pyridin-3-yl)piperazine-1-carboxamide] yielded an IC50 [1] of at least 10000 nM and an IC50 [2] of at least 10000 nM.
